# Reference: patent US6872735B2, “LFA-1 antagonist compounds” (Genentech, Inc., priority 2000, dated 2005)
# Columns and labels:
# [1] = biological target: recombinant human LFA-1 (LFA-1:ICAM-1) (Homo sapiens, UniProt P05107+P20701); experiment: PLM2 antibody capture LFA-1:ICAM-1 assay
# Protocol: The plates are blocked with 0.5% BSA in assay buffer (0.02M Hepes, 0.15M NaCl, and 1 mM MnCl2) 1 h at room temperature. Plates are washed with 50 mM Tris pH 7.5, 0.1M NaCl, 0.05% Tween 20 and 1 mM MnCl2. Purified full-length recombinant human LFA-1 protein is diluted to 2 μg/ml in assay buffer and 100 μl/well is added to plates and incubated 1 h at 37° C. Plates are washed 3×. 50 μl/well inhibitors, appropriately diluted in assay buffer, are added to a 2× final concentration and incubated for 30′ at 37° C. […] Plates are washed and bound ICAM-Ig is detected with Goat anti-HuIgG(Fc)-HRP for 1 h at room temperature. Plates are washed and developed with 100 μl/well TMB substrate for 5-10′ at room temperature.
# [2] = Serum/plasma protein binding (ultrafiltration, LC/MS-MS); assay type: in vitro ADME; details: pH 7.4, 37° C., Centrifree ultrafiltration
# Protocol: Binding of test compounds was performed according to procedures described in Borga et al (Journal of Pharmacokinetics & Biopharmaceutics, 1997, 25(1):63-77) and Godolphin et al (Therapeutic drug monitoring, 1983, 5:319-23). Duplicate samples of 10 μl of test compound stock solution (1 μg/μL) was spiked into 1 mL of either buffer or serum/plasma adjusted to pH 7.4 using CO2 at room temperature. Samples were equilibrated by incubating vials in a water bath with shaker at 37° C. for 15 minutes. 200 μl of the buffer spiked sample was saved as prefiltrate. 800 μl of buffer spiked samples and 1 ml of serum spiked samples were centrifuged at 1500 g, 37° C., for 30 minutes in a Centrifree ultrafiltration device (Amicon Inc.). Pre and post-filtrates were then analyzed by LC/MS-MS and percent binding of test compound to serum/plasma protein was determined from the post and prefiltrates accounting for any non-specific binding determined from the buffer control.
# Chain of recombinant human LFA-1 (LFA-1:ICAM-1) (P20701 26-1170): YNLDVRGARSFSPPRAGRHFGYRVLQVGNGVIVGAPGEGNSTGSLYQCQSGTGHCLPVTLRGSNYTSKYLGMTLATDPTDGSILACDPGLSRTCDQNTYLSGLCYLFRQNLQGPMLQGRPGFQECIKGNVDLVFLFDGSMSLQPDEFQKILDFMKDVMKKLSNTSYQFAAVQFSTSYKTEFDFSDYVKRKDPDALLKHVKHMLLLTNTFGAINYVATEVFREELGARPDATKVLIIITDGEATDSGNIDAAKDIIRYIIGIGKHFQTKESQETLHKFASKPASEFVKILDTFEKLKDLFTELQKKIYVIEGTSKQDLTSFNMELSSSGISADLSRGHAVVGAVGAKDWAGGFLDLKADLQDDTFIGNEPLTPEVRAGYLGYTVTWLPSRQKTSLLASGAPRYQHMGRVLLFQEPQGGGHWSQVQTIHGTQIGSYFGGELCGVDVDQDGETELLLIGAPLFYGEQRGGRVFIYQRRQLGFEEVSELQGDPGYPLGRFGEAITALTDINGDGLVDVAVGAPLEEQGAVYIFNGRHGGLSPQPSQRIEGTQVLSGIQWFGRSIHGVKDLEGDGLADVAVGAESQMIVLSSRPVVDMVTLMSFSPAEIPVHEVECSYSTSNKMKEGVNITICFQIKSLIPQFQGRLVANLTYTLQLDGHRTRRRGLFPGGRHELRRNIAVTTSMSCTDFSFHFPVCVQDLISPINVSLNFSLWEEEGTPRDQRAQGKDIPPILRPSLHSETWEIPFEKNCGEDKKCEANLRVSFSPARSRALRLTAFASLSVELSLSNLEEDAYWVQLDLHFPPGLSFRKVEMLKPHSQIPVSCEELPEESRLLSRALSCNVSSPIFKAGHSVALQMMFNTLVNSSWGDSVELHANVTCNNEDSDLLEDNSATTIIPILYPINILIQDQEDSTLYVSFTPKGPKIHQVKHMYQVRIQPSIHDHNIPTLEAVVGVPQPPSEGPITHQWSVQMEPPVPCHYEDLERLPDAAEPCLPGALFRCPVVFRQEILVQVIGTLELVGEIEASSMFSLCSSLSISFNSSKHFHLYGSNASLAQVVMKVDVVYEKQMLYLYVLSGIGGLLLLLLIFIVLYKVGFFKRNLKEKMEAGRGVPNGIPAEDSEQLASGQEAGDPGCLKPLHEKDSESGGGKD
# Chain of recombinant human LFA-1 (LFA-1:ICAM-1) (P05107 23-769): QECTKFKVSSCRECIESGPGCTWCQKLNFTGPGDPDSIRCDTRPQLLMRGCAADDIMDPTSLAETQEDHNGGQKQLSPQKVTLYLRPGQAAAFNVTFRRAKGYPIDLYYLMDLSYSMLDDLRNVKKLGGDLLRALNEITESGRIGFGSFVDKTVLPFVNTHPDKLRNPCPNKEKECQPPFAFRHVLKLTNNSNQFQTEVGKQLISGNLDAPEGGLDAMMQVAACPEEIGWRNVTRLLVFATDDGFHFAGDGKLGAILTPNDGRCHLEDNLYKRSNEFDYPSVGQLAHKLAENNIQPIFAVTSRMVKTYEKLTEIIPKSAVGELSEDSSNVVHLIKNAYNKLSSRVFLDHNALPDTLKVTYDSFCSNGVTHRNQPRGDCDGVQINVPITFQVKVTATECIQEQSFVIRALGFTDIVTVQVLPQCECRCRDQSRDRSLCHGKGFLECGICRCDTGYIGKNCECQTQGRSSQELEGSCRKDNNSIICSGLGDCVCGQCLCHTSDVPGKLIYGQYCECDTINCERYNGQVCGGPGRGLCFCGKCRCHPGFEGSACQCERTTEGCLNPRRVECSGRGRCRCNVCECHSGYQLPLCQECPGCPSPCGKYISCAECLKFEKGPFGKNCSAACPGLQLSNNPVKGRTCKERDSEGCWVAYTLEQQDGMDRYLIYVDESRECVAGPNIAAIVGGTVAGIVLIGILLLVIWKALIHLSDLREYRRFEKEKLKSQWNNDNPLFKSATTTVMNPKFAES
IC50 [1],"fraction unbound at 15 min, 10 µg/mL [2]",Structure (SMILES)
4 nM,0.171,O=C(/C=C/c1ccco1)NCc1cc(Cl)c(C(=O)N[C@@H](CNC(=O)[C@@H]2CCCN2)C(=O)O)c(Cl)c1 [Compound 4]
3 nM,0.152,O=C(/C=C/c1ccco1)NCc1cc(Cl)c(C(=O)N[C@@H](CNC(=O)[C@H]2NCC[C@@H]2O)C(=O)O)c(Cl)c1 [Compound 41]
7 nM,0.0457,O=C(/C=C/c1ccco1)NCc1cc(Cl)c(C(=O)N[C@@H](CNC(=O)[C@@H]2CSCN2)C(=O)O)c(Cl)c1 [Compound 6]
9 nM,0.486,CN(C[C@H](NC(=O)c1c(Cl)cc(CNC(=O)/C=C/c2ccco2)cc1Cl)C(=O)O)C(=O)[C@@H]1CCCN1 [Compound 35]
2 nM,0.205,O=C(/C=C/c1ccco1)NCc1cc(Cl)c(C(=O)N[C@@H](CNC(=O)[C@H]2C[C@@H](O)CN2)C(=O)O)c(Cl)c1 [Compound 12]
2 nM,0.228,O=C(/C=C/c1ccco1)NCc1cc(Cl)c(C(=O)N[C@@H](CNC(=O)[C@@H]2CCCCN2)C(=O)O)c(Cl)c1 [Compound 9]
2 nM,0.17,CC1CC[C@@H](C(=O)NC[C@H](NC(=O)c2c(Cl)cc(CNC(=O)/C=C/c3ccco3)cc2Cl)C(=O)O)N1 (stereo partly drawn) [Compound 44]
3 nM,0.154,CC(=O)N1CCC[C@H]1C(=O)NC[C@H](NC(=O)c1c(Cl)cc(CNC(=O)/C=C/c2ccco2)cc1Cl)C(=O)O [Compound 17]
2 nM,0.0307,O=C(/C=C/c1ccco1)NCc1cc(Cl)c(C(=O)N[C@@H](CNC(=O)[C@@H]2CSC(=S)N2)C(=O)O)c(Cl)c1 [Compound 40]

# The remaining lines, values behind:
Structure (SMILES),IC50 [1],"fraction unbound at 15 min, 10 µg/mL [2]"
O=C(/C=C/c1ccco1)NCc1cc(Cl)c(C(=O)N[C@@H](CNC(=O)C2CCCO2)C(=O)O)c(Cl)c1 (stereo partly drawn) [Compound 51],5 nM,0.072
O=C(/C=C/c1ccco1)NCc1cc(Cl)c(C(=O)N[C@@H](CNC(=O)[C@@H]2CSC(=O)N2)C(=O)O)c(Cl)c1 [Compound 38],12 nM,0.0671
O=C(/C=C/c1ccco1)NCc1cc(Cl)c(C(=O)N[C@@H](CNC(=O)[C@H]2C[C@H](O)CN2)C(=O)O)c(Cl)c1 [Compound 10],3 nM,0.341
O=C(/C=C/c1ccco1)NCc1cc(Cl)c(C(=O)N[C@@H](CNC(=O)C2CCNCC2)C(=O)O)c(Cl)c1 [Compound 3],11 nM,0.192
O=C(/C=C/c1ccco1)NCc1cc(Cl)c(C(=O)N[C@@H](CNC(=O)[C@@H]2C[C@@H](O)CN2)C(=O)O)c(Cl)c1 [Compound 14],2 nM,0.274
O=C(N[C@@H](CNC(=O)[C@H]1C[C@@H](O)CN1)C(=O)O)c1c(Cl)cc(C(O)CCc2cccc(Cl)c2)cc1Cl (stereo partly drawn) [Compound 37],,0.0681
C[C@H]1CCN[C@@H]1C(=O)NC[C@H](NC(=O)c1c(Cl)cc(CNC(=O)/C=C/c2ccco2)cc1Cl)C(=O)O [Compound 13],4 nM,0.224
O=C(N[C@@H](CNC(=O)[C@@H]1CSCN1)C(=O)O)c1c(Cl)cc(C(O)CCc2cccc(O)c2)cc1Cl (stereo partly drawn) [Compound 36],2 nM,0.0716
O=C(/C=C/c1ccco1)NCc1cc(Cl)c(C(=O)N[C@@H](CNC(=O)[C@H]2CCCN2)C(=O)O)c(Cl)c1 [Compound 5],8 nM,0.169
O=C(/C=C/c1ccco1)NCc1cc(Cl)c(C(=O)N[C@@H](CNC(=O)[C@H]2CSCN2)C(=O)O)c(Cl)c1 [Compound 15],4 nM,0.0749
O=C(/C=C/c1ccco1)NCc1cc(Cl)c(C(=O)N[C@@H](CNC(=O)C2CSCN2)C(=O)O)c(Cl)c1 (stereo partly drawn) [Compound 42],3 nM,0.086
